Measurements taken from ChEMBL document CHEMBL6092194, “Development of membrane-targeting chalcone derivatives as antibacterial agents against multidrug-resistant bacteria” (Eur J Med Chem, 2024).

How the values were obtained:
Staphylococcus aureus [1] = experiment: Antibacterial activity against penicillin-resistant Staphylococcus aureus ATCC43300 by broth microdilution assay; assay type: functional
Enterococcus faecalis = experiment: Antibacterial activity against vancomycin susceptible Enterococcus faecalis ATCC29212 by broth microdilution assay; assay type: functional
Staphylococcus aureus [2] = experiment: Antibacterial activity against erythromycin susceptible Staphylococcus aureus ATCC25923 by broth microdilution assay; assay type: functional
Acinetobacter baumannii = experiment: Antibacterial activity against Acinetobacter baumannii ATCC19606 by broth microdilution assay; assay type: functional
[3] = Hemolytic activity in red blood cells (unknown origin); assay type: toxicity, cell-based, Erythrocyte
Klebsiella pneumoniae = experiment: Antibacterial activity against Klebsiella pneumoniae ATCC10031 by broth microdilution assay; assay type: functional
Pseudomonas aeruginosa = experiment: Antibacterial activity against penicillin-susceptible Pseudomonas aeruginosa ATCC27853 by broth microdilution method; assay type: functional
Escherichia coli = experiment: Antibacterial activity against penicillin-susceptible Escherichia coli ATCC25922 by broth microdilution method; assay type: functional
[4] = Selectivity index, ratio of HC50 for hemolytic activity in red blood cells (unknown origin) to MIC for antibacterial activity against penicillin-resistant Staphylococcus aureus ATCC43300; assay type: toxicity, cell-based, RBC; conditions: read-out: Selectivity Index
Bacillus subtilis = experiment: Antibacterial activity against penicillin-susceptible Bacillus subtilis ATCC9372 by broth microdilution assay; assay type: functional
[5] = test system: Staphylococcus epidermidis; experiment: Antibacterial activity against erythromycin-susceptible Staphylococcus epidermidis ATCC12228 by broth microdilution assay; assay type: functional
Staphylococcus aureus [6] = experiment: Antibacterial activity against penicillin-resistant Staphylococcus aureus ATCC31007 by broth microdilution assay; assay type: functional

SMILES	MIC (Staphylococcus aureus [1]) [µg/mL]	MIC (Enterococcus faecalis) [µg/mL]	MIC (Staphylococcus aureus [2]) [µg/mL]	MIC (Acinetobacter baumannii) [µg/mL]	HC50 [3] [µg/mL]	MIC (Klebsiella pneumoniae) [µg/mL]	MIC (Pseudomonas aeruginosa) [µg/mL]	MIC (Escherichia coli) [µg/mL]	selectivity ratio [4]	MIC (Bacillus subtilis) [µg/mL]	MIC [5] [µg/mL]	MIC (Staphylococcus aureus [6]) [µg/mL]
CCCCCCCCCCCCCC[N+](C)(C)CCCOc1ccc(C(=O)/C=C/c2ccccc2)cc1.[Br-]	32	32	8	128	39	128	> 128	> 128	9.8	32	16	64
CCCCCCCCCCOc1cc[n+](CCCOc2ccc(/C=C/C(=O)c3ccc(OCCC[n+]4ccc(OCCCCCCCCCC)cc4)cc3)cc2)cc1.[Br-].[Br-]	128	128	128	32	161	16	> 128	128	1.3	128	8	128
CCCCCCCCCCCCCC[N+](C)(C)CCCOc1ccc(/C=C/C(=O)c2ccc(OCCC[N+](C)(C)CCCCCCCCCCCCCC)cc2)cc1.[Br-].[Br-]	128	> 128	64	128	28.4	128	> 128	> 128	0.2	> 128	> 128	64
CCCCCCCCCCNC(=O)C[N+](C)(C)CCCOc1ccc(/C=C/C(=O)c2ccc(OCCC[N+](C)(C)CC(=O)NCCCCCCCCCC)cc2)cc1.[Br-].[Br-]	64	> 128	32	128	66.1	> 128	> 128	> 128	1	32	64	16
CCCC[N+](C)(C)CCCOc1ccc(C(=O)/C=C/c2ccccc2)cc1.[Br-]	32	64	16	> 128	96.3	128	> 128	128	3	64	16	64
CCCCCC(=O)Nc1cc[n+](CCCOc2ccc(C(=O)/C=C/c3ccccc3)cc2)cc1.[Br-]	4	8	2	> 128	> 1280	> 128	> 128	> 128	> 320	4	> 128	4
CCCCCCCCCCCC[N+](C)(C)CCCOc1ccc(C(=O)/C=C/c2ccccc2)cc1.[Br-]	4	> 128	4	64	220	64	> 128	128	55.1	4	8	16
CCCCCCCCCC[N+](C)(C)CCCOc1ccc(/C=C/C(=O)c2ccc(OCCC[N+](C)(C)CCCCCCCCCC)cc2)cc1.[Br-].[Br-]	2	2	8	128	44	64	32	8	22	2	1	2
CCCCCCNC(=O)C[N+](C)(C)CCCOc1ccc(/C=C/C(=O)c2ccc(OCCC[N+](C)(C)CC(=O)NCCCCCC)cc2)cc1.[Br-].[Br-]	1	2	1	32	234	4	32	2	329	2	1	1
CCCCCCCCCC[N+](C)(C)CCCOc1ccc(C(=O)/C=C/c2ccccc2)cc1.[Br-]	4	64	8	> 128	756	128	> 128	> 128	189	8	16	4
CCCC(=O)Nc1cc[n+](CCCOc2ccc(C(=O)/C=C/c3ccccc3)cc2)cc1.[Br-]	> 128	> 128	> 128	> 128	> 1280	> 128	> 128	> 128	> 10	> 128	> 128	> 128
CCCC[N+](C)(C)CCCOc1ccc(/C=C/C(=O)c2ccc(OCCC[N+](C)(C)CCCC)cc2)cc1.[Br-].[Br-]	8	4	2	> 128	590	128	> 128	128	73.8	8	2	2
CCCCCCCCCCCCNC(=O)C[N+](C)(C)CCCOc1ccc(/C=C/C(=O)c2ccc(OCCC[N+](C)(C)CC(=O)NCCCCCCCCCCCC)cc2)cc1.[Br-].[Br-]	> 128	> 128	> 128	> 128	703	> 128	> 128	> 128	< 5.5	128	> 128	> 128
O=C(Cc1ccc(-c2ccccc2)cc1)Nc1cc[n+](CCCOc2ccc(C(=O)/C=C/c3ccccc3)cc2)cc1.[Br-]	> 128	> 128	> 128	> 128	> 1280	> 128	> 128	> 128	> 10	> 128	> 128	128
O=C(CC12CC3CC(CC(C3)C1)C2)Nc1cc[n+](CCCOc2ccc(C(=O)/C=C/c3ccccc3)cc2)cc1.[Br-]	128	64	32	> 128	708	> 128	> 128	> 128	5.5	64	64	64
CCCCNC(=O)C[N+](C)(C)CCCOc1ccc(/C=C/C(=O)c2ccc(OCCC[N+](C)(C)CC(=O)NCCCC)cc2)cc1.[Br-].[Br-]	8	8	2	> 128	> 1280	32	> 128	16	> 160	4	4	4
CCCCCCCC[N+](C)(C)CCCCCOc1ccc(C(=O)/C=C/c2ccccc2)cc1.[Br-]	2	2	2	8	50.5	8	> 128	128	25.2	4	4	4
CCCCOc1cc[n+](CCCOc2ccc(/C=C/C(=O)c3ccc(OCCC[n+]4ccc(OCCCC)cc4)cc3)cc2)cc1.[Br-].[Br-]	4	0.5	1	128	> 1280	8	64	16	> 320	1	1	2
CCCCCCCCCCCC[N+](C)(C)CCCCCCCOc1ccc(C(=O)/C=C/c2ccccc2)cc1.[Br-]	16	32	16	> 128	47.4	> 128	> 128	> 128	3	16	16	64
CCCCCCCCNC(=O)C[N+](C)(C)CCCOc1ccc(/C=C/C(=O)c2ccc(OCCC[N+](C)(C)CC(=O)NCCCCCCCC)cc2)cc1.[Br-].[Br-]	4	4	4	16	69.5	32	128	8	17.4	4	8	8
CCCCCCCCCCCC(=O)Nc1cc[n+](CCCOc2ccc(C(=O)/C=C/c3ccccc3)cc2)cc1.[Br-]	16	8	8	> 128	753	> 128	> 128	> 128	47.1	> 128	128	8
CCCCCCCCCC(=O)Nc1cc[n+](CCCOc2ccc(C(=O)/C=C/c3ccccc3)cc2)cc1.[Br-]	4	8	4	64	871	> 128	> 128	32	218	2	16	4
CCCCCC[N+](C)(C)CCCOc1ccc(C(=O)/C=C/c2ccccc2)cc1.[Br-]	16	16	4	64	49.6	64	> 128	> 128	3.1	16	8	16
